Results as given in PubChem BioAssay (NCI).
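Test compounds were applied to cells in 96-well plates for 48 hours at 5 doses. TGI: total growth inhibition.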

Tests used:
Assay in all cases: NCI tumour cell line growth inhibition, 48 h
SK-OV-3 ovarian = tested on: SK-OV-3 ovarian
HT29 colon = tested on: HT29 colon
NCI-H226 lung = tested on: NCI-H226 lung
SF-539 CNS = tested on: SF-539 CNS
BT-549 breast = tested on: BT-549 breast
MALME-3M melanoma = tested on: MALME-3M melanoma
A498 renal = tested on: A498 renal
A549 NSCLC = tested on: A549 NSCLC
M14 melanoma = tested on: M14 melanoma
SK-MEL-2 melanoma = tested on: SK-MEL-2 melanoma
EKVX NSCLC = tested on: EKVX NSCLC
ACHN renal = tested on: ACHN renal
HCT-116 colon = tested on: HCT-116 colon
NCI-H522 lung = tested on: NCI-H522 lung
UO-31 renal = tested on: UO-31 renal
CCRF-CEM leukemia = tested on: CCRF-CEM leukemia
MDA-MB-231 breast = tested on: MDA-MB-231 breast
MDA-MB-435 = tested on: MDA-MB-435
NCI-H23 lung = tested on: NCI-H23 lung
UACC-62 melanoma = tested on: UACC-62 melanoma
NCI/ADR-RES ovarian = tested on: NCI/ADR-RES ovarian
MOLT-4 leukemia = tested on: MOLT-4 leukemia
OVCAR-3 ovarian = tested on: OVCAR-3 ovarian
OVCAR-5 ovarian = tested on: OVCAR-5 ovarian
TK-10 renal = tested on: TK-10 renal
SK-MEL-5 melanoma = tested on: SK-MEL-5 melanoma
K-562 leukemia = tested on: K-562 leukemia
HOP-92 NSCLC = tested on: HOP-92 NSCLC
RXF 393 renal = tested on: RXF 393 renal
SK-MEL-28 melanoma = tested on: SK-MEL-28 melanoma
NCI-H460 lung = tested on: NCI-H460 lung
786-0 renal = tested on: 786-0 renal
MCF7 breast = tested on: MCF7 breast
HS 578T breast = tested on: HS 578T breast
SF-268 CNS = tested on: SF-268 CNS
SNB-75 CNS = tested on: SNB-75 CNS
MDA-N = tested on: MDA-N
HCT-15 colon = tested on: HCT-15 colon
IGROV1 ovarian = tested on: IGROV1 ovarian
T-47D breast = tested on: T-47D breast
LOX IMVI melanoma = tested on: LOX IMVI melanoma
SW-620 colon = tested on: SW-620 colon
SNB-19 CNS = tested on: SNB-19 CNS
DU-145 prostate = tested on: DU-145 prostate
OVCAR-4 ovarian = tested on: OVCAR-4 ovarian
PC-3 prostate = tested on: PC-3 prostate
HOP-62 NSCLC = tested on: HOP-62 NSCLC
COLO 205 colon = tested on: COLO 205 colon
OVCAR-8 ovarian = tested on: OVCAR-8 ovarian
KM12 colon = tested on: KM12 colon
HCC-2998 colon = tested on: HCC-2998 colon
SN12C renal = tested on: SN12C renal
SF-295 CNS = tested on: SF-295 CNS
U251 CNS = tested on: U251 CNS
UACC-257 melanoma = tested on: UACC-257 melanoma
CAKI-1 renal = tested on: CAKI-1 renal

Question: Which results are given for `C=C1C(=O)O[C@@H]2C[C@@H](C)[C@@H]3C=CC(=O)[C@@]3(C)[C@@H](OC(=O)CCCC(=O)O[C@H]3[C@@H]4C(=C)C(=O)O[C@@H]4C[C@@H](C)[C@@H]4C=CC(=O)[C@]43C)[C@H]12`?
Answer: TGI (SK-OV-3 ovarian): 3800 nM; TGI (HT29 colon): 152 nM; TGI (NCI-H226 lung): 1350 nM; TGI (SF-539 CNS): 185 nM; TGI (BT-549 breast): 70 nM; TGI (MALME-3M melanoma): 37.3 nM; TGI (A498 renal): 546 nM; TGI (A549 NSCLC): 6090 nM; TGI (M14 melanoma): 58.4 nM; TGI (SK-MEL-2 melanoma): 340 nM; TGI (EKVX NSCLC): 264 nM; TGI (ACHN renal): 110 nM; TGI (HCT-116 colon): 30 nM; TGI (NCI-H522 lung): 25.3 nM; TGI (UO-31 renal): 289 nM; TGI (CCRF-CEM leukemia): 1450 nM; TGI (MDA-MB-231 breast): 79 nM; TGI (MDA-MB-435): 32.9 nM; TGI (NCI-H23 lung): 275 nM; TGI (UACC-62 melanoma): 103 nM; TGI (NCI/ADR-RES ovarian): 4120 nM; TGI (MOLT-4 leukemia): 63.4 nM; TGI (OVCAR-3 ovarian): 275 nM; TGI (OVCAR-5 ovarian): 387 nM; TGI (TK-10 renal): 296 nM; TGI (SK-MEL-5 melanoma): 293 nM; TGI (K-562 leukemia): 36.3 nM; TGI (HOP-92 NSCLC): 104 nM; TGI (RXF 393 renal): 47 nM; TGI (SK-MEL-28 melanoma): 136 nM; TGI (NCI-H460 lung): 955 nM; TGI (786-0 renal): 44.8 nM; TGI (MCF7 breast): 805 nM; TGI (HS 578T breast): 433 nM; TGI (SF-268 CNS): 230 nM; TGI (SNB-75 CNS): 482 nM; TGI (MDA-N): 43.1 nM; TGI (HCT-15 colon): 112 nM; TGI (IGROV1 ovarian): 313 nM; TGI (T-47D breast): 66.6 nM; TGI (LOX IMVI melanoma): 152 nM; TGI (SW-620 colon): 43.2 nM; TGI (SNB-19 CNS): 2560 nM; TGI (DU-145 prostate): 957 nM; TGI (OVCAR-4 ovarian): 262 nM; TGI (PC-3 prostate): 299 nM; TGI (HOP-62 NSCLC): 2610 nM; TGI (COLO 205 colon): 111 nM; TGI (OVCAR-8 ovarian): 29.5 nM; TGI (KM12 colon): 662 nM; TGI (HCC-2998 colon): 1270 nM; TGI (SN12C renal): 93.8 nM; TGI (SF-295 CNS): 3130 nM; TGI (U251 CNS): 377 nM; TGI (UACC-257 melanoma): 271 nM; TGI (CAKI-1 renal): 187 nM
